Source: patent US20220249665A1, “TRANSFECTION METHOD” (Takeda Pharmaceutical Company Limited, priority 2019, published 2022)

Test system: C2C12 cells
Experiment: Introduction of low-molecular-weight compound (FITC) into skeletal muscle cell
Assay type: cell-based
Procedure: C2C12 cells (3×10^4 cells, 0.5 mL) in 10% FBS-containing DMEM medium were seeded in 48 wells. After removing the medium, 0.5 ml of ultrafine bubble/DMEM medium containing 0.38 μg of FITC was added. An ultrafine bubble/DMEM medium prepared by adding 1 L of the ultrafine bubble aqueous solution prepared in Reference Example 1 to a DMEM medium powder, and adding 2 g/L NaHCO3 and 10% FBS was used as a transfection medium.
After adding the FITC-containing medium, ultrasound exposure was performed for 10 sec at a frequency of 1 MHz and output intensities of 100, 250, 500 mW/cm^2 and using an ultrasound generator (NEPAGENE). After ultrasound exposure, the cells were cultured for 2 hr, then the transfection medium was removed, and the cells were cultured in DMEM medium (culture medium) for 48 hr.
After completion of the culture, the cells were collected, completely lysed with 0.5 mL of cell lysis solution, and the fluorescent intensity of FITC was measured with a spectrofluoro-photometer. The amount of FITC uptake was evaluated as a relative amount by proportional calculation with the measured value of Control (ultrafine bubbles alone) as 1.

## O=C1OC2(c3ccc(O)cc3Oc3cc(O)ccc32)c2ccc(N=C=S)cc21 [FITC]
Ultrafine bubbles (negatively-charged, C3F8) combined with ultrasound 1 MHz, 10 sec, C2C12, 0.38 μg FITC
  introduction efficiency of FITC into the cell: remarkably increased
Ultrafine bubbles + ultrasound 100 mW/cm^2
  introduction efficiency of FITC: increasing tendency was observed
Ultrafine bubbles + ultrasound 250 mW/cm^2
  introduction efficiency of FITC: particularly superior introduction efficiency
Ultrafine bubbles + ultrasound 250 or 500 mW/cm^2
  introduction efficiency of FITC: increased significantly
